From ChEMBL document CHEMBL3046631, “Synthesis and Structure-Activity Relationships of Dinotefuran Derivatives: Modification in the Nitroguanidine Part” (2004)

Legend:
[1] = system: Laodelphax striatellus; experiment: Insecticidal activity against 1 to 3 day-old adult Laodelphax striatella (small brown planthopper) infested compound-treated rice seedlings assessed as mortality measured after 3 days; type: functional
[2] = system: Nephotettix cincticeps; experiment: Insecticidal activity against 1 to 3 day-old adult Nephotettix cincticeps (green rice leafhopper) infested in compound-treated rice seedlings assessed as mortality measured after 3 days; type: functional

Compound	LC70 [1] [ppm]	LC70 [2] [ppm]
N/C(=N\[N+](=O)[O-])NCC1CCOC1 (racemic)	>1000	100
CS/C(=C\[N+](=O)[O-])NCC1CCOC1 (racemic)	>1000	>1000
CC(=O)N/C(=N\[N+](=O)[O-])NCC1CCOC1 (racemic)	>1000	>1000
CC(=O)N(C)/C(=N\[N+](=O)[O-])N(CC1CCOC1)C(C)=O (racemic)	0.1	0.1
O=[N+]([O-])/N=C1\NCCCN1CC1CCOC1 (racemic)	1	0.1
CN(Cc1ccccc1)/C(=N\[N+](=O)[O-])N(Cc1ccccc1)CC1CCOC1 (racemic)	10	10
CCCN/C(=C\[N+](=O)[O-])NCC1CCOC1 (racemic)	100	100
CN(C)/C(=N\[N+](=O)[O-])NCC1CCOC1 (racemic)	1	0.1
CN/C(=N/CC1CCOC1)N[N+](=O)[O-] (centres undefined) [DINOTEFURAN]	0.1	0.1
CS/C(=C\[N+](=O)[O-])N(C)CC1CCOC1 (racemic)	>1000	>1000
O=[N+]([O-])/N=C1\NCCCCN1CC1CCOC1 (racemic)	100	10
CCN(C(C)=O)/C(=N\[N+](=O)[O-])N(CC1CCOC1)C(C)=O (racemic)	10	10
CN1CCCN(CC2CCOC2)/C1=C/[N+](=O)[O-] (racemic)	10	10
O=[N+]([O-])/N=C1\NCCN1CC1CCOC1 (racemic)	10	1
CN/C(=C\[N+](=O)[O-])N(C)CC1CCOC1 (racemic)	1	1
COC(=O)N(CC1CCOC1)/C(=N/[N+](=O)[O-])N(C)C(C)=O (racemic)	1	0.1
CN(C(=O)c1ccccc1)/C(=N\[N+](=O)[O-])N(CC1CCOC1)C(=O)c1ccccc1 (racemic)	1	0.1
CN(C)/C(=N\[N+](=O)[O-])N(C)CC1CCOC1 (racemic)	10	10
CCCN(CC1CCOC1)/C(=C/[N+](=O)[O-])NC (racemic)	10	10
CS/C(=N\[N+](=O)[O-])N(C)CC1CCOC1 (racemic)	>1000	>1000
O=[N+]([O-])/C=C1\NCCCN1CC1CCOC1 (racemic)	1	0.1

Compound	LC70 [1] [ppm]	LC70 [2] [ppm]
CN(C)/C(=C\[N+](=O)[O-])N(C)CC1CCOC1 (racemic)	1	10
C#CCN/C(=C\[N+](=O)[O-])NCC1CCOC1 (racemic)	>1000	>1000
CN1CCCN(CC2CCOC2)/C1=N/[N+](=O)[O-] (racemic)	100	10
O=[N+]([O-])/C=C1\NCCN1CC1CCOC1 (racemic)	10	0.1
CCN(CC1CCOC1)/C(=C/[N+](=O)[O-])NC (racemic)	1	10
O=[N+]([O-])/N=C(\NCc1ccccc1)NCC1CCOC1 (racemic)	>1000	>1000
COC(=O)N(CC1CCOC1)/C(=N/[N+](=O)[O-])N(C)Cc1ccccc1 (racemic)	1	0.1
O=C(N/C(=N\[N+](=O)[O-])NCC1CCOC1)c1ccccc1 (racemic)	>1000	>1000
CCN(C)/C(=N\[N+](=O)[O-])NCC1CCOC1 (racemic)	10	10
CCN/C(=C\[N+](=O)[O-])NCC1CCOC1 (racemic)	10	10
O=[N+]([O-])/C=C1\NCCCCN1CC1CCOC1 (racemic)	10	1
CN/C(=N\[N+](=O)[O-])N(C)CC1CCOC1 (racemic)	1	1
CCN/C(=N\[N+](=O)[O-])NCC1CCOC1 (racemic)	100	10
CCN(CC1CCOC1)/C(=N/[N+](=O)[O-])NC (racemic)	10	10
O=C(c1ccccc1)N1CCCN(CC2CCOC2)/C1=N\[N+](=O)[O-] (racemic)	10	0.1
COC(=O)N(C)/C(=N\[N+](=O)[O-])N(CC1CCOC1)C(=O)OC (racemic)	1	0.1
CC(=O)N1CCCN(CC2CCOC2)/C1=N\[N+](=O)[O-] (racemic)	10	0.1
CN/C(=C\[N+](=O)[O-])NCC1CCOC1 (racemic)	0.1	0.1
CN(C)/C(=C\[N+](=O)[O-])NCC1CCOC1 (racemic)	0.1	1
CS/C(=N\[N+](=O)[O-])NCC1CCOC1 (centres undefined)	10	10
COC(=O)N/C(=N\[N+](=O)[O-])NCC1CCOC1 (racemic)	>1000	10
